From patent US20030162834A1, “Natural physiologically active material effective on fish diseases and fish food containing the material” (priority 1998, published 2003)

Tests used:
Enterococcus seriolicida = test: Trial 11: turbidimetric antibacterial assay; format: cell-based; conditions: 500 ppm in BHI liquid culture medium, 13 hours, 23 degrees centigrade
Procedure: (§1) The turbidimetric analysis was employed. Fatty acids of C2, C4, C6-C10 were each dissolved in 2 ml of BHI liquid culture medium at 500 ppm concentration. A number 1×10^5 of typical bacteria (Vibrio anguillarum, Edwardsiella tarda and Enterococcus seriolicida) causing the fish bacterial diseases were inoculated in each adjusted culture medium, followed by cultivation for 13 hours at 23 degrees centigrade. After the cultivation, turbidity of the culture medium was measured at 600 nm to determine the amount of multiplied bacteria. The trial was conducted two times. Results are shown in FIG. 19 (Vibrio anguillarum), FIG. 20 (Edwardsiella tarda), and FIG. 21 (Enterococcus seriolicida).

Vibrio anguillarum = test: Trial 11: turbidimetric antibacterial assay; format: cell-based; conditions: 500 ppm in BHI liquid culture medium, 13 hours, 23 degrees centigrade
Procedure: as §1

Edwardsiella tarda = test: Trial 11: turbidimetric antibacterial assay; format: cell-based; conditions: 500 ppm in BHI liquid culture medium, 13 hours, 23 degrees centigrade
Procedure: as §1

fish bacteria = test: Trial 11: overall statement on C12 against fish bacteria; format: cell-based; conditions: low concentration, not the same condition as 500 ppm
Procedure: as §1, with “Fatty acids of C2, C4, C6-C10 were each dissolved in 2 ml of BHI liquid culture medium at 500 ppm concentration.” left out

[1] = tested on: parasites (Heterobothrium okamotoi, Cryptocaryon irritans); test: Trial 1: overall statements on efficacy of fatty acids against parasites; format: cell-based; conditions: Trial 1 summary; C12 at a low concentration, not the same condition
Procedure: Fatty acids having carbon number C2, C4 and C6-C10 were each dissolved in seawater at 1 mM concentration, and oncomiracidia of Heterobothrium okamotoi and larvae attaching to the gill were immersed in the seawater solutions. After 2 hours from the start of immersion, the efficacy of the fatty acids was investigated by counting the number of dead oncomiracidia and the number of larvae dropping down from the gill. More than 30 individuals of parasites were transferred to each group.
For Cryptocaryon irritans, fatty acids having carbon number C2, C4 and C6-C10 were each dissolved in seawater at 0.5 mM concentration, and theronts of Cryptocaryon irritans were immersed in the seawater solutions. After 1 hour from the start of immersion, the efficacy of the fatty acids was investigated by counting the number of dead theronts. More than 200 individuals of parasites were transferred to each group.
For any of the groups, the trial was made under condition of 20 degrees centigrade.

Solubility = format: physicochemical
[2] = tested on: Vibrio sp. infection and gliding bacterium infection; test: Trial 12: bleeding trial on spotted plaice with occurred bacterial disease; format: in vivo
Excerpt: Spotted plaice weighing approximately 60 g in average was employed in this trial. Each 270 pieces of spotted plaice were put in off-shore net pens of 4×4×2.5 m, and bled for 100 days. […] The number of dead fish and the fish situations were observed. The fish were fed twice per day, i.e., in the morning and evening. The water temperature during the trial period was in the range of 14-17 degrees centigrade.

Heterobothrium okamotoi = conditions: drug bath about one hour, about 800 ppm formalin; cited from earlier work
Cryptocaryon irritans [3] = test: In vitro assay of glycerides of octanoic acid against Cryptocaryon irritans; format: cell-based
Cryptocaryon irritans [4] = test: Trial 8: octanoic acid versus its monoglyceride and triglyceride, oral, red sea bream; format: in vivo; conditions: diet amount equal to 17.5 mM octanoic acid residues (2.5 g acid, 3.8 g monoglyceride, 2.7 g triglyceride per kg)
Excerpt: Fish tested: Red sea bream weighing approximately 15.8 g in average.
Trial groups: Four groups, i.e., an octanoic-acid added group in which fish were fed diets added with octanoic acid, a monoglyceride added group in which fish were fed diets added with monoglyceride of octanoic acid, a triglyceride added group in which fish were fed diets added with triglyceride of octanoic acid, and a control group in which fish were fed diets added with neither octanoic acid nor glycerides. The feeding rate was 3% of fish weight/day for each group.
Trial diets: The diets added with octanoic acid were prepared by spraying 2.5 g (17.5 mM with respect to the diet weight) of octanoic acid to 1 kg of commercially available pellets for red sea bream. […]. Specifically, the diets added with monoglyceride and triglyceride were prepared respectively by spraying 3.8 g of monoglyceride and 2.7 g of triglyceride to 1 kg of the commercially available pellets for red sea bream. The control group fish were fed the commercially available pellets for red sea bream.
Challenge trial: Each 10 pieces of fish from among a shoal of fish, in which no diseases such as Cryptocaryon irritans infection were found, were put in a 100-liter water tank, and were fed the respective trial diets. After 5 days, approximately 2000 individuals of theronts of Cryptocaryon irritans were put into each water tank to infect the fish while water flow was stopped for 1 hour. Then, bleeding was continued for 31 days while feeding the respective trial diets. During the trial period, the water temperature was 24+−1 degrees centigrade and the water was exchanged at 20 cycles/day.
Evaluation was made by sampling 5 pieces of fish from each group after 18 and 31 days from the start of the challenge, and comparing the number of the parasites attaching to the gill of each fish.

[5] = diets containing 0.5% decanoic acid fed from the 64-th day

SMILES: CCCCCCCCC(=O)O [C9, pelargonic acid]
- antibacterial activity (turbidity at 600 nm) (Enterococcus seriolicida): showed an antibacterial activity
- antibacterial activity (turbidity at 600 nm) (Vibrio anguillarum): showed an antibacterial activity
- antibacterial activity (turbidity at 600 nm) (Edwardsiella tarda): showed an antibacterial activity

SMILES: CCCCCCCCCCCC(=O)O [C12, lauric acid]
- antibacterial activity (fish bacteria): a similar activity was found even at a low concentration
- efficacy against parasites [1]: a similar activity was found even at a low concentration
- solubility in seawater (Solubility; Trial 1 conditions (1 mM / 0.5 mM)): so low in solubility that the trial could not be made under the same condition
- solubility in BHI liquid culture medium (Solubility; Trial 11 conditions (500 ppm)): so low in solubility that the trial could not be made under the same condition

SMILES: CN(C)[C@@H]1C(O)=C(C(N)=O)C(=O)[C@@]2(O)C(O)=C3C(=O)c4c(O)cccc4[C@@](C)(O)[C@H]3[C@H](O)[C@@H]12 [OTC, exytetracycline, reference compound]
- number of dead fish after application ([2]; OTC in diet 6 days (22-th to 27-th day), 0.5 g of 10% OTC/kg of fish weight): reduced
- complete remedy of the Vibrio sp. infection ([2]; OTC in diet 6 days, 0.5 g of 10% OTC/kg of fish weight): not confirmed

SMILES: CCCCCCCCCC(=O)O [decanoic acid]
- dead fish after the 72-th day from the start of the trial [2, 5]: no dead fish were found
- fish suffering abrasion and bleeding due to the infections [2, 5]: not found
- number of dead fish after feeding [2, 5]: apparently reduced
- antibacterial activity (turbidity at 600 nm) (Enterococcus seriolicida): showed an antibacterial activity
- antibacterial activity (turbidity at 600 nm) (Vibrio anguillarum): showed an antibacterial activity
- antibacterial activity (turbidity at 600 nm) (Edwardsiella tarda): showed an antibacterial activity

SMILES: C=O [formalin]
- effect on adult parasites (Heterobothrium okamotoi): cannot destroy adult parasites at all
- larvae destroyed (Heterobothrium okamotoi): ≤ 80%

SMILES: CCCCCCCC(=O)OCC(O)CO (stereo not drawn) [monoglyceride of octanoic acid]
- antibacterial activity against Cryptocaryon irritans (Cryptocaryon irritans [3]): an antibacterial activity though at a lower level than octanoic acid
- number of parasites attaching to the gill after 18 and 31 days, versus control (Cryptocaryon irritans [4]): apparently fewer

SMILES: CCCCCCCC(=O)OCC(COC(=O)CCCCCCC)OC(=O)CCCCCCC [triglyceride of octanoic acid]
- antibacterial activity against Cryptocaryon irritans (Cryptocaryon irritans [3]): no antibacterial activity
- number of parasites attaching to the gill after 18 and 31 days, versus control (Cryptocaryon irritans [4]): apparently fewer
